Source: article PMC6412695, “Hydroxamic Acid-Based Histone Deacetylase (HDAC) Inhibitors Bearing a Pyrazole Scaffold and a Cinnamoyl Linker” (International Journal of Molecular Sciences, 2019)
“Also recorded” adds a separate entry of the source.

Experiments:
[1] = test system: neuroblastoma SH-SY5Y tumor cell line; experiment: MTT antiproliferative assay; type: cell-based, Human; settings: SH-SY5Y cells; for inhibition at 25 µM / IC50: Homo sapiens; for inhibition at 25 µM: after 72 h, read-out: inhibition of cell proliferation; for inhibition at 25 µM / antiproliferative effect (in words): MTT; for IC50: MTT test; for antiproliferative effect (in words): 1–50 µM, 24, 48 and 72 h
Protocol: Human neuroblastoma cell line SH-SY5Y was originally obtained from ATCC (Rockville, MD, USA). Cells were cultured as previously reported. Briefly, we employed RPMI 1640 medium with 10% heat-inactivated fetal bovine serum (FBS), 2 mM L-glutamine, 1 mM sodium pyruvate, 100 IU/mL penicillin and 100 μg/mL streptomycin at 37 °C in a humidified atmosphere with 5% CO2. All the reagents for cell culture were from Carlo Erba (Milan, Italy). For biological investigations, compounds 1a, 2 and 3 were solubilized in dimethyl sulfoxide (DMSO) to obtain stock solutions at a final concentration of 50 mM that were stored at −20 °C. Just prior use, aliquots were diluted in medium to the final concentrations ranging from 1 to 50 μM.
The abovementioned compounds were evaluated by the MTT assay to assess their anti-proliferative activity, as reported by Ferlazzo et al. Cells were seeded at a density of 5 × 10^3 cell/well in 96-well plates and incubated overnight at 37 °C. In treated cells, the medium was then replaced with a fresh one in which the compounds were diluted from 1 to 50 µM. Untreated cells together with ones exposed to DMSO 0.1% served as control and solvent control, respectively. After incubation for 24, 48, and 72 h, plates were firstly centrifuged, then the medium was removed, and a solution of 3-(4,5-dimethylthiazole-2-yl)-2,5-diphenyltetrazolium bromide (MTT; Sigma-Aldrich, Milan, Italy) at a concentration of 0.5 mg/mL in fresh medium (w/o phenol red) was added. Plates were incubated for further 4h. Afterward, MTT solution was removed, and the obtained formazan crystals were solubilized in 100 µL of a lysis buffer consisting of HCl/isopropanol 0.1 N and regularly shaken. Optical density was measured employing a microplate reader (iMark™, Bio-Rad Laboratories, Milan, Italy) at 595 nm. All experiments were carried out in eight replicates for three times. Results are expressed as the percentage of viable cells compared to untreated cells.

[2] = test system: HDAC (HeLa nuclear extract); experiment: HDAC Inhibitor Drug Screening Kit (fluorometric, Biovision K340-100); type: biochemical; settings: for Inhibition at 500 μM (%) / Inhibition at 10 μM (%): mean of 3 independent measurements, SD <10%; for IC50: HDAC inhibitory activity
Protocol: The N^1-phenylpyrazole derivatives 1a (the isomer with the connection unit at C5) and 1b (the isomer with the connection unit at C3) were evaluated for their ability to inhibit the HDAC activity to have a preliminary insight about the SAR of this set of compounds. […] Therefore, the development of the other two derivatives of this class, i.e., the p-CN-phenyl derivative 2 and the p-Br-phenyl derivative 3, was focused on the single isomer C5-substituted. As for 1a, the detected inhibitory activity of 2 and 3 was in the low micromolar range (6.3 µM and 1.6 µM, respectively; Table 1).

Row | SMILES | inhibition at 25 µM [1] | IC50 [1] | Inhibition at 500 μM (%) [2] | IC50 [2] | Inhibition at 10 μM (%) [2] | antiproliferative effect (in words) [1] | antiproliferative effect (in words) ([1]; listed as 2a)
1 | Cc1cc(C(=O)Nc2ccc(/C=C/C(=O)NO)cc2)n(-c2ccccc2)n1 [Compound 1a, (E)-N-(4-(3-(hydroxyamino)-3-oxoprop-1-enyl)phenyl)-3-methyl-1-phenyl-1H-pyrazole-5-carboxamide] | > 75% | 5.34 µM | 86% | 7.1 ± 0.5 µM | – | – | –
2 | Cc1cc(C(=O)Nc2ccc(/C=C/C(=O)NO)cc2)nn1-c1ccccc1 [Compound 1b, (E)-N-(4-(3-(hydroxyamino)-3-oxoprop-1-enyl)phenyl)-5-methyl-1-phenyl-1H-pyrazole-3-carboxamide] | – | – | 30% | > 500 µM | 6% | – | –
3 | Cc1cc(C(=O)Nc2ccc(/C=C/C(=O)NO)cc2)n(-c2ccc(C#N)cc2)n1 [Compound 2, (E)-1-(4-cyanophenyl)-N-(4-(3-(hydroxyamino)-3-oxoprop-1-enyl)phenyl)-3-methyl-1H-pyrazole-5-carboxamide] | – | – | 88% | 6.3 ± 0.3 µM | 51% | inactive | None of the tested concentrations; also recorded: No antiproliferative effect
4 | Cc1cc(C(=O)Nc2ccc(/C=C/C(=O)NO)cc2)n(-c2ccc(Br)cc2)n1 [Compound 3, (E)-1-(4-bromophenyl)-N-(4-(3-(hydroxyamino)-3-oxoprop-1-enyl)phenyl)-3-methyl-1H-pyrazole-5-carboxamide] | > 75% | 5.61 µM | 88% | 1.6 ± 0.2 µM | 74% | – | –
5 | O=C(/C=C/c1ccc(NC(=O)c2cc(-c3ccccc3)[nH]n2)cc1)NO [Compound 4, (E)-N-(4-(3-(hydroxyamino)-3-oxoprop-1-enyl)phenyl)-5-phenyl-1H-pyrazole-3-carboxamide] | – | – | 71% | 155 ± 2.8 µM | 13% | – | –
6 | O=C(/C=C/c1ccc(NC(=O)c2cc(-c3ccc(Br)cc3)[nH]n2)cc1)NO [Compound 5, (E)-5-(4-bromophenyl)-N-(4-(3-(hydroxyamino)-3-oxoprop-1-enyl)phenyl)-1H-pyrazole-3-carboxamide] | – | – | 15% | > 500 µM | – | – | –
7 | O=C(/C=C/c1ccc(NC(=O)c2n[nH]c3c2Cc2ccccc2-3)cc1)NO [Compound 6, (E)-N-(4-(3-(hydroxyamino)-3-oxoprop-1-enyl)phenyl)-1,4-dihydroindeno[1,2-c]pyrazole-3-carboxamide] | – | – | 87% | 46.5 ± 1.5 µM | 29% | – | –
8 | CC(/C=C/C(=O)NO)=C\[C@@H](C)C(=O)c1ccc(N(C)C)cc1 [TSA, Trichostatin A, reference compound] | – | – | – | 3.4 ± 0.2 µM | – | – | –
